Source: patent US11708374B2, “Preparation of condensed triazepine derivatives and their use as BET inhibitors” (DYBLY AG, priority 2018, dated 2023)
Where two headings read alike, the source gives them in different places.

Experiments:
BRD4 = BRD4 (Homo sapiens, UniProt O60885); assay: AlphaScreen assay, Bromodomain 4 inhibition; assay type: binding
Experimental: AlphaScreen assays were performed as described by Philpott et al Mol Biosyst. […] YSGRGK(Ac)GGK(Ac)GLGK(Ac)GGAK(Ac)RHRK (Biotin) peptide was used in the assays. Buffer conditions used in all experiments were 25 mM HEPES, pH 7.4, 100 mM NaCl, 0.1% BSA, supplemented with 0.05% CHAPS.

collagen1A1 = assay: Anti-fibrotic effects: collagen1A1 production by LX2 cells treated with TGFbeta; assay type: cell-based; details: 500 nM
Source text: (§1) Methods of culturing LX2 cells and measurements of Collagen1A1 and alphaActin1 mRNA contents are provided in Ding et al, Proc Natl Acad Sci USA 2015, 112:15713-15718

alphaActin1 = assay: Anti-fibrotic effects: alphaActin1 production by LX2 cells treated with TGFbeta; assay type: cell-based; details: 500 nM
Source text: as §1

[1] = tested on: Interleukin 1beta (IL-1beta), Interleukin 6 (IL6) and TNF-alpha; assay: LPS-stimulated cytokine production in whole human blood; assay type: cell-based; details: 10 ng/ml LPS; for inhibition at 0.6 µM: 600 nM, 24 h, read-out: Inhibition of inflammatory cytokine production
Experimental: BET inhibitors were added (from 10 mM DMSO solutions) to whole human blood (anti-coagulated with heparin) during incubation for 24 h at 37° C. in the presence of 10 ng/ml Lipopolysaccharide (LPS). Final DMSO concentration was below 0.01%. Cytokines production with 0.01% DMSO alone in the absence of LPS were below detection level.

KG1 = assay: Inhibition of proliferation (Alamar Blue cell viability), KG1; assay type: cell-based; details: Homo sapiens, KG-1; AML, KG1, 72 h; read-out: Inhibition of cell growth, IC50
Experimental: (§2) A semi-log dilution was performed in 100% DMSO. Cells were cultured in DMEM containing 10% FCS and Penicillin/Streptomycin. For the assays, cells were seeded in 150 μL medium on a 96-well cell culture plate and incubated at 37° C. overnight before the compound was added. […] A day after cell seeding, 10 μL of prediluted compound was added to the cells (1:16 dilution). Treatment of cells with 0.1% DMSO and Staurosporine (1.0E-05 M) served as High control (100% viability) and Low control (0% viability), respectively
(§3) A day after cell seeding, the test compound was added to the medium to reach the final concentration and incubated for 72 h at 37° C. at 5% CO2 in air dependent on the medium. Subsequently 15 μL Alamar Blue reagent was added and fluorescence at 590 nm was measured after 3-5 h incubation at 37° C., 5% CO2 using a fluorometer.
(§4) Raw data were converted into percent cell viability relative to the high control (0.1% DMSO) and low control (1E-05M Staurosporine), which were set to 100% and 0%, respectively.

LP-1 = assay: Inhibition of proliferation (Alamar Blue cell viability), LP-1; assay type: cell-based; details: Homo sapiens; Multiple myeloma, LP-1, 72 h; read-out: Inhibition of cell growth, IC50
Experimental: as §2, §3, §4

CCL2 = assay: Production of the chemokine CCL2 by cultured human astrocytes (CCL2 mRNA); assay type: cell-based; details: 250 nM, 24 h
Experimental: CCL2 mRNA content of control astrocytes, astrocytes incubated with 10 ug/ml Tumor Necrosis Factor alpha (TNFalpha) and 10 ug/ml Interferon alpha (IFNalpha) (T/I), astrocytes treated with 250 nM of “Compound 38” (referred to as “C4” in FIG. 2) and astrocytes which are pretreated with “Compound 38” (C4) for 1 hour before stimulation with T/I. Incubation period 24 h. Details on astrocyte culture and quantification of CCL2 mRNA are provided in Mizee et al. Acta Neuropathol (2014) 128:691-703. […] Co-addition of 250 nM of “Compound 38” decreased CCL2 production by 80% both in the absence and presence of TNFalpha/Interferon as shown in FIG. 2.

OPM-2 = assay: Inhibition of proliferation (Alamar Blue cell viability), OPM-2; assay type: cell-based; details: Homo sapiens; Multiple myeloma, OPM-2, 72 h; read-out: Inhibition of cell growth, IC50
Experimental: as §2, §3, §4

HL-60 = assay: Inhibition of proliferation (Alamar Blue cell viability), HL-60; assay type: cell-based; details: Homo sapiens; AML, HL-60, 72 h; read-out: Inhibition of cell growth, IC50
Experimental: as §2, §3, §4

KMS-12-BM = assay: Inhibition of proliferation (Alamar Blue cell viability), KMS-12-BM; assay type: cell-based; details: Homo sapiens, Multiple myeloma, 72 h, read-out: Inhibition of cell growth, IC50
Experimental: as §2, §3, §4

[2] = AlphaScreen, acetylated histone peptide, read-out: Potency as inhibitor of BRD4, IC-50

SMILES | IC50 (BRD4; [2]) | Reduction of collagen1A1 production (collagen1A1) | Reduction of alphaActin1 production (alphaActin1) | inhibition at 0.6 µM [1] | also measured
Cc1sc2c(c1C)C(c1ccc(Cl)cc1)=NN(CC(=O)O)c1nnc(C)n1-2.Cl [Compound 42, 2-(4-(4-chlorophenyl)-2,3,9-trimethyl-6H-thieno[2,3-e][1,2,4]triazolo[3,4-c][1,2,4]triazepin-6-yl)acetic acid hydrochloride] | 290 nM | less inhibition | less inhibition | – | –
Cc1sc2c(c1C)C(c1ccc(Cl)cc1)=NN(CC(=O)OC(C)(C)C)c1nnc(C)n1-2 [Compound 43, tert-butyl 2-(4-(4-chlorophenyl)-2,3,9-trimethyl-6H-thieno[2,3-e][1,2,4]triazolo[3,4-c][1,2,4]triazepin-6-yl)acetate] | 100 nM | less inhibition | less inhibition | – | –
CCOC(=O)CN1N=C(c2ccc(Cl)cc2)c2c(sc(C)c2C)-n2c(C)nnc21 [Compound 41, Ethyl 2-(4-(4-chlorophenyl)-2,3,9-trimethyl-6H-thieno[2,3-e][1,2,4]triazolo[3,4-c][1,2,4]triazepin-6-yl)acetate] | 11 nM | reduced to an equal extent | reduced to an equal extent | > 80% | IC50 ([1]; 24 h at 37° C., read-out: Inhibition of production of IL-1beta, IL6 and TNF-alpha, IC50s): 6 to 60 nM
Cc1sc2c(c1C)C(c1ccc(Cl)cc1)=NN(C)c1nnc(C)n1-2 [Compound 38, 4-(4-chlorophenyl)-2,3,6,9-tetramethyl-6H-thieno[2,3-e][1,2,4]triazolo[3,4-c][1,2,4]triazepine] | – | – | – | – | IC50 (BRD4): 150 nM; IC50 (KG1): 810 nM; IC50 (LP-1): 360 nM; Decrease of CCL2 production (CCL2; absence of TNFalpha/Interferon): 80%; Decrease of CCL2 production (CCL2; presence of TNFalpha/Interferon): 80%; IC50 (OPM-2): 260 nM; IC50 (HL-60): 810 nM; IC50 (KMS-12-BM): 270 nM
Cc1sc2c(c1C)C(c1ccc(Cl)cc1)=N[C@@H](CC(=O)OC(C)(C)C)c1nnc(C)n1-2 [(+)JQ1, reference compound] | – | reduced to an equal extent | reduced to an equal extent | ~30% | –
